Data on 18 molecules can be found in US20220153732A1, “PROTEIN SECRETION INHIBITORS” (KEZAR LIFE SCIENCES, priority 2019, published 2022).

Assay type in all cases: cell-based
For assay [1], the system named is HER3-ss+4aa/Gaussia Luciferase. In words: Dox-Induced Her3-ss-Gluc Assay. Conditions: 293FRT/TO cells, read-out: 24 hr Dox Inducible Her3(ss + 4)Gluc 293FRT/TO: Mean IC50. The method in brief:
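Stable T-REx cell line carrying a doxycycline-regulated HER3-ss+4aa/Gaussia luciferase insert, plated the day before assay. Compound dilutions in DMSO/media with doxycycline added, then incubated at 37° C., 5% CO2. Stereoisomer mixtures tested where stereochemistry is not drawn.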

In assay [2] the test system is TNFα-FL/Gaussia Luciferase. In words: Dox Induced TNFα-FL-Gluc Assay. Conditions: 293FRT/TO cells, read-out: 24 hr Dox Inducible TNFaFLGluc 293FRT/TO: Mean IC50. The method in brief:
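A stable T-REx cell line carrying doxycycline-inducible TNFα-FL/Gaussia luciferase was plated the day before assay. Compound dilutions in DMSO/media containing doxycycline were then added and incubated at 37° C, 5% CO2.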

The subject of assay [3] is PD1-ss+10aa/Gaussia Luciferase. Put plainly: Dox-Induced PD1-ss-Gluc Assay. The settings on record: 293FRT/TO cells, read-out: 24 hr Dox Inducible PD1ssGluc 293FRT/TO: Mean IC50. An outline of the steps:
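Stable cell line carrying PD1-ss+10aa/Gaussia luciferase cDNA under T-REx (doxycycline-inducible) control, plated the day before assay. Compound dilutions in DMSO/media containing doxycycline added and incubated at 37° C, 5% CO2. Undefined stereocentres: data refer to stereoisomer mixtures.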

The test system of assay [4] is IL-2-FL/Gaussia Luciferase. In words: Dox Induced IL2-FL-Gluc Assay. Conditions: 293FRT/TO cells, read-out: 24 hr Dox Inducible IL2FLGIuc 293FRT/TO: Mean IC50. An outline of the steps: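 Stable T-REx cell line expressing doxycycline-inducible IL-2-FL/Gaussia luciferase cDNA, plated the day before assay. Compound dilutions in DMSO/media containing doxycycline added and incubated at 37° C., 5% CO2. Unspecified stereochemistry means data refer to a stereoisomer mixture.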

In assay [5] the test system is human multiple myeloma cell line U266B1. Put plainly: U266 Cell Viability Assay. The settings on record: U-266, 48 hr, U266B1 cells, Celltiter-Glo, read-out: 48 hr U266 Viability Celltiter-Glo: Mean EC50. An outline of the steps:
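U266B1 myeloma cells treated with compound dilutions in DMSO/media for 48 h at 37 °C, 5% CO2. Viability read by CellTiter-Glo luminescence. Stereochemically undefined structures were tested as stereoisomer mixtures.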
On the technique in general: ATP-based viability assays read luminescence as a measure of living cells.

In assay [6] the test system is human multiple myeloma cell line NCI-H929. In words: H929 Cell Viability Assay. The settings on record: 48 hr, NCI-H929 cells, Celltiter-Glo, read-out: 48 hr H929 Viability Celltiter-Glo: Mean EC50. The procedure:
Plates were incubated at 37° C., 5% CO2 for 48 hours. After 48 hours, Celltiter-Glo® (Promega) was added to each well and luciferase signal was quantified using Tecan Infinite M1000 Pro for cell viability determination.
For chemical structures that include one or more stereoisomers, but are illustrated without indicating stereochemistry, the assay data refers to a mixture of stereoisomers.

Setting [7] is: 24 hr doxycycline induction, Gaussia luciferase signal.

Structures are written as SMILES. Read-outs that look alike come from different tables or passages of the source. A value given as a limit tells only on which side of the number the result lay.

With `O=C(Nc1nc(/C=C/c2ccc([N+](=O)[O-])cc2)cs1)c1cccn1Cc1ccncc1` [Compound A227], the IC50 in assay [1] (setting [7]) came out at 0.379 µM; in assay [2] (setting [7]) it was 1.9 µM; in assay [3] (setting [7]), 0.053 µM; in assay [4] (setting [7]) it was 0.625 µM. The half-maximal effective concentration (EC50) (in general, the concentration that produces a half-maximal response) in assay [5] is above 21.4 µM; in assay [6], 8.95 µM.

On to `O=C(Nc1nc([C@H]2C[C@@H](OC3CCCCC3)CN2c2ccccc2)cs1)c1cccn1Cc1ccncc1` [Compound A354], for which the IC50 in assay [1] (24 hr, doxycycline-induced) was 0.016 µM; in assay [2] (24 hr, doxycycline-induced) it was 0.054 µM; in assay [3] (24 hr, doxycycline-induced) it was 0.006 µM; in assay [4] (24 hr, doxycycline-induced) it was 0.021 µM. Also, the concentration for a half-maximal effect (EC50) is above 25 µM in assay [5] and 0.901 µM in assay [6].

As to `CC(C)OC(C)(C)c1csc(NC(=O)c2c(Cl)ccn2Cc2ccncc2)n1` [Compound A86, 3-chloro-N-(4-(2-isopropoxypropan-2-yl)thiazol-2-yl)-1-(pyridin-4-ylmethyl)-1H-pyrrole-2-carboxamide], the IC50 in assay [1] (setting [7]) is above 25 µM; in assay [2] (setting [7]), above 25 µM; in assay [3] (setting [7]), 8 µM; in assay [4] (setting [7]), above 25 µM. The concentration giving a half-maximal response (EC50) in assay [5] and in assay [6] was above 25 µM each time.

`CO[C@H]1CC[C@@H](/C=C/c2csc(NC(=O)c3cccn3Cc3ccncc3)n2)CC1` [Compound A254, N-(4-(2-((1s,4s)-4-methoxycyclohexyl)vinyl)thiazol-2-yl)-1-(pyridin-4-ylmethyl)-1H-pyrrole-2-carboxamide]: the IC50 in assay [1] (setting [7]) stood at 0.189 µM; in assay [2] (setting [7]), 1.53 µM; in assay [3] (setting [7]), 0.074 µM; in assay [4] (setting [7]), 0.554 µM. For the same molecule, the concentration for a half-maximal effect (EC50) in assay [5] worked out at 4.13 µM; in assay [6], 4.1 µM.

As to `CC(C)OC(C)(C)c1csc(NC(=O)c2cccn2Cc2ccc(=O)n(C)c2)n1` [Compound A124, N-(4-(2-isopropoxypropan-2-yl)thiazol-2-yl)-1-((1-methyl-6-oxo-1,6-dihydropyridin-3-yl)methyl)-1H-pyrrole-2-carboxamide], the IC50 in assay [1] (setting [7]), in assay [2] (setting [7]), in assay [3] (setting [7]) and in assay [4] (setting [7]) was above 25 µM throughout. For the same molecule, the concentration for a half-maximal effect (EC50) in assay [5] and in assay [6] was above 25 µM each time.

For the molecule `CC(C)OC(C)(C)c1csc(NC(=O)c2cccn2Cc2ccncc2Cl)n1` [Compound A238, 1-((3-chloropyridin-4-yl)methyl)-N-(4-(2-isopropoxypropan-2-yl)thiazol-2-yl)-1H-pyrrole-2-carboxamide], the IC50 in assay [1] (setting [7]) is 1.57 µM; in assay [2] (setting [7]) it was 18.3 µM; in assay [3] (setting [7]), 0.643 µM; in assay [4] (setting [7]) it was 1.2 µM. Also, the EC50 in assay [5] and in assay [6] was above 25 µM in each case.

For the molecule `O=C(Nc1nc2ccsc2s1)c1cccn1Cc1ccncc1` [Compound A60], the IC50 was 3.75 µM in assay [1] (setting [7]), above 25 µM in assay [2] (setting [7]), 1.57 µM in assay [3] (setting [7]) and 2.69 µM in assay [4] (setting [7]). In addition, the EC50 in assay [5] and in assay [6] was above 25 µM throughout.

Consider `CC(C)OC(C)(C)c1csc(NC(=O)c2ccc(C(=O)N(C)C)n2Cc2ccncc2)n1` [Compound A107, N2-(4-(2-isopropoxypropan-2-yl)thiazol-2-yl)-N5,N5-dimethyl-1-(pyridin-4-ylmethyl)-1H-pyrrole-2,5-dicarboxamide], for which the IC50 in assay [1] (setting [7]), in assay [2] (setting [7]), in assay [3] (setting [7]) and in assay [4] (setting [7]) was above 25 µM in each case. In addition, the EC50 in assay [5] and in assay [6] was above 25 µM each time.

Consider `CN(C)C(=O)c1ccc(/C=C/c2csc(NC(=O)c3cccn3Cc3ccncc3)n2)cc1` [Compound A246], for which the IC50 in assay [1] (setting [7]) is 21.9 µM; in assay [2] (setting [7]) it was above 25 µM; in assay [3] (setting [7]), 0.526 µM; in assay [4] (setting [7]), above 25 µM. For the same molecule, the results for the EC50 in assay [5] and in assay [6] were 10.3 µM and 14 µM, respectively.

Regarding `CC(C)OC(C)(C)c1csc(NC(=O)c2cccn2Cc2ccccc2Cl)n1` [Compound A78], the IC50 in assay [1] (setting [7]) was 7.88 µM; in assay [2] (setting [7]), above 25 µM; in assay [3] (setting [7]), 3.16 µM; in assay [4] (setting [7]), 6.38 µM. Further, the EC50 is above 25 µM in assay [5] and 20.9 µM in assay [6].

Take `CC(=O)N1CCC(Cn2cccc2C(=O)Nc2nc(C(C)(C)OC(C)C)cs2)CC1` [Compound A128, 1-((1-acetylpiperidin-4-yl)methyl)-N-(4-(2-isopropoxypropan-2-yl)thiazol-2-yl)-1H-pyrrole-2-carboxamide]: the IC50 in assay [1] (setting [7]), in assay [2] (setting [7]), in assay [3] (setting [7]) and in assay [4] (setting [7]) was above 25 µM throughout. Moreover, the EC50 in assay [5] and in assay [6] was above 25 µM each time.

Consider `O=C(Nc1nc(Cc2ccccc2)cs1)c1cccn1Cc1ccncc1` [Compound A17, N-(4-benzylthiazol-2-yl)-1-(pyridin-4-ylmethyl)-1H-pyrrole-2-carboxamide], for which the IC50 in assay [1] (setting [7]) turned out to be 0.56 µM; in assay [2] (setting [7]) it was 2.23 µM; in assay [3] (setting [7]), 0.191 µM; in assay [4] (setting [7]), 0.804 µM. The concentration giving a half-maximal response (EC50) in assay [5] is above 25 µM; in assay [6] it was 20.8 µM.

On to `COc1cnc([C@@H]2C[C@H]2c2csc(NC(=O)c3cccn3Cc3ccncc3)n2)c(F)c1` [Compound A335], for which the IC50 is 0.411 µM in assay [1] (24 hr, doxycycline-induced); 3.01 µM in assay [2] (24 hr, doxycycline-induced); 0.13 µM in assay [3] (24 hr, doxycycline-induced); 0.752 µM in assay [4] (24 hr, doxycycline-induced). In addition, the EC50 in assay [5] was above 25 µM; in assay [6], 11.4 µM.

Consider `CC(/C=C/c1csc(NC(=O)c2cccn2Cc2ccncc2)n1)c1ccccc1` (stereo not drawn) [Compound A251], for which the IC50 was determined as 0.344 µM in assay [1] (setting [7]), 1.42 µM in assay [2] (setting [7]), 0.125 µM in assay [3] (setting [7]) and 0.549 µM in assay [4] (setting [7]). The EC50 in assay [5] was above 25 µM; in assay [6], 11.7 µM.

In the case of `O=C(Nc1nc([C@H]2C[C@@H](c3ccccn3)C2)cs1)c1cccn1Cc1ccncc1` [Compound A349], the IC50 in assay [1] (24 hr, doxycycline-induced) was 1.26 µM; in assay [2] (24 hr, doxycycline-induced), 6.62 µM; in assay [3] (24 hr, doxycycline-induced) it was 0.364 µM; in assay [4] (24 hr, doxycycline-induced) it was 1.7 µM. Besides, the concentration giving a half-maximal response (EC50) is above 25 µM in assay [5] and 12.5 µM in assay [6].

As to `C/C(=C\c1ccccc1)c1csc(NC(=O)c2cccn2Cc2ccncc2)n1` [Compound A247, N-(4-(1-phenylprop-1-en-2-yl)thiazol-2-yl)-1-(pyridin-4-ylmethyl)-1H-pyrrole-2-carboxamide], the IC50 in assay [1] (setting [7]) amounted to 0.377 µM; in assay [2] (setting [7]), 2.32 µM; in assay [3] (setting [7]) it was 0.146 µM; in assay [4] (setting [7]), 0.788 µM. Besides, the EC50 in assay [5] and in assay [6] was above 25 µM in each case.

Consider `O=C(Nc1nc(N2CCc3ccccc3C2)cs1)c1cccn1Cc1ccncc1` [Compound A267], for which the IC50 in assay [1] (setting [7]) was above 25 µM; in assay [2] (setting [7]) it was above 25 µM; in assay [3] (setting [7]), 15.4 µM; in assay [4] (setting [7]), above 25 µM. For the same molecule, the concentration for a half-maximal effect (EC50) in assay [5] and in assay [6] was above 25 µM in each case.

`CC(C)OC(C)(C)c1csc(NC(=O)c2cccn2Cc2ccnnc2)n1` [Compound A69, N-(4-(2-isopropoxypropan-2-yl)thiazol-2-yl)-1-(pyridazin-4-ylmethyl)-1H-pyrrole-2-carboxamide]: the IC50 is 6.22 µM in assay [1] (setting [7]), above 25 µM in assay [2] (setting [7]), 2.08 µM in assay [3] (setting [7]) and 4.17 µM in assay [4] (setting [7]). For the same molecule, the EC50 in assay [5] and in assay [6] was above 25 µM throughout.
